In patent publication US20250065017A1, “Fractionating Extracellular Matrix to Modulate Bioactivity and the Host Response” (University of Pittsburgh - Of the Commonwealth System of …, priority 2014, published 2025):

Columns and labels:
[1] = test system: THP-1 macrophages; assay: TNFα and IL-1β secretion after treatment (ELISA); assay type: cell-based, human; settings: 48 hours treatment
Method: (§1) THP-1 human monocytes were obtained from the American Tissue Culture Collection (ATCC, Manassas, VA) and maintained in RPMI, 10% FBS, 1% penicillin/streptomycin, 2 mM L-glutamine, and 1 mM sodium pyruvate in a humidified atmosphere at 37° C. with 5% CO2. For TNFα, PGE2, PGF2α, IL-1β, and IL-1RA experiments, 500,000 THP-1 cells/well were plated with 320 nM phorbol 12-myristate 13-acetate (PMA) for 24 hours to induce differentiation into macrophages. Adherent macrophages were washed in PBS and placed in fresh media, followed by a 24 hour incubation in fresh media to acquiesce. Human PSCs were isolated from blood vessels in fetal muscle according to the methods outlined by Crisan et al. [Purification and long-term culture of multipotent progenitor cells affiliated with the walls of human blood vessels: myoendothelial cells and pericytes. […]
(§2) Macrophages prepared as described in the Cell Culture section were treated with UBM digest (290 μg/mL) or fractionated components (80 μg/mL soluble, 170 μg/mL structural) for 48 (TNFα, IL-1β and IL-1RA), or 72 (PGE2 and PGF2α) hours. […] Commercially available ELISA kits were used to determine the absolute quantities of TNFα (BD Bioscience, San Jose, CA), PGE2 (Enzo, Farmingdale, NY), PGF2α (Enzo, Farmingdale, NY), IL-1β (BD Bioscience, San Jose, CA), and IL1-RA (R&D Systems, Minneapolis, MN) according to the manufacturer's instructions. […]

[2] = test system: THP1 macrophages; assay: PGE2 and PGF2α secretion (ELISA); assay type: cell-based, human; settings: coadministered along with UBM hydrogel
Method: as §1, §2

Molecule	production of TNFα and IL-1β above control [1]	PGE2 secretion on co-incubation with COX2 inhibitor [2]
lipopolysaccharide [LPS]	100-1000 fold	
CS(=O)(=O)Nc1ccc([N+](=O)[O-])cc1OC1CCCCC1 [NS-398]		abrogated PGE2 secretion down to control levels
